“And” between values parts separate entries of the source, which are not always exact repeats. Equal entries are not always repeated.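 Step 1: Grow cells in 96-well plates. Step 2: Expose to compound for 48 hours at 5 concentrations. Step 3: Interpolate endpoints linearly; if unreached, use highest concentration. At the GI50, growth is halved. TGI: total growth inhibition.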
Each compound was assayed on BT-549 breast (assay: DTP human tumour cell line panel, 48 h).

SMILES	GI50 [µM]	TGI [µM]
O=c1[nH]ncc(Br)c1Br	3.63	12.2
COc1ccc(-c2cc(=O)c3c(OC)c(OC)c(OC)cc3o2)cc1	–	> 100

The compounds below were run on DMS 114 small cell lung (assay: DTP human tumour cell line panel, 48 h).

SMILES	TGI	GI50 [µM]
COC(=O)c1c/c(=N\NC(=O)CC(=O)Nc2ccccc2OC)c2ccccc2o1	> 100 µM	–
NC(CCC(=O)NC(CSSCCCCS(=O)O)C(=O)NCC(=O)O)C(=O)O (stereo not given)	> 100 µM	–
CCc1ccc(/C=C\c2cc(OC)c(OC)c(OC)c2)cc1	0.228 µM and 0.057 µM	0.0156
O=c1c2cc([N+](=O)[O-])ccc2sc2ccsc12	> 100 µM	–
COc1ccc(/C=C/CN(C)CCc2ccccc2)cc1OC	> 100 µM	–
[Cl-].[Dy+3].[O-]/N=C(\c1ccccc1)c1ccccn1.[O-]/N=C(\c1ccccc1)c1ccccn1.[O-]/N=C(\c1ccccc1)c1ccccn1	77.6 µM	24.6
NC(=O)C(=O)N/N=C(\CC1(O)C(=O)Nc2ccccc21)c1ccc2ccccc2c1 (stereo not given)	55.4 µM	–
Cc1cc2c(cc1C)[n+](=O)c(C(=O)C/C(=N/NC(=O)CC#N)C(=O)Nc1ccccc1C(F)(F)F)c(C)n2[O-]	> 100 µM	–
COC(=O)/C(=N/NC(=O)C[N+](C)(C)C)C(C(=O)OC)C(=O)C(=O)Nc1ccc(F)cc1 (stereo not given)	> 100 µM	–
Brc1cccc(C=NC23CC4CC(CC(C4)C2)C3)c1	> 100 µM	–
CCC[CH2][Sn]([CH2]CCC)([O]C(=O)c1cccnc1SC)[O]C(=O)c1cccnc1SC	0.829 µM	0.128
O=C1O[C@@H](c2ccc3c(c2)OCO3)C2C(=O)O[C@@H](c3ccc4c(c3)OCO4)C12 (stereo not given in full)	> 100 µM	–
O=C1CCC(=O)N2CCCCN12	> 100 µM	–
CC(C)C(=O)NC(=S)Nc1ccc([N+](=O)[O-])cc1C#N	> 100 µM	–
C/C(CC(=O)Nc1cc(Cl)c(Cl)cc1Cl)=N\NC(N)=O	> 100 µM	–
O=C(O)CNS(=O)(=O)c1ccc(NCc2ccccc2)cc1	> 100 µM	–
O=C1CCC2(c3ccc(F)cc3)Nc3cc(Cl)ccc3N12 (stereo not given)	> 100 µM	–

What follows are compounds tested on NCI-H460 lung (assay: DTP human tumour cell line panel, 48 h).

SMILES	TGI	GI50
COC(=O)c1c/c(=N\NC(=O)CC(=O)Nc2ccccc2OC)c2ccccc2o1	> 100 µM	–
NC(CCC(=O)NC(CSSCCCCS(=O)O)C(=O)NCC(=O)O)C(=O)O (stereo not given)	> 100 µM	–
COC12C=C(C)C(CC1)CC2C(=O)O (stereo not given)	> 100 µM	–
OCC(O)CC[CH2][Sn]([Br])([c]1ccccc1)[c]1ccccc1 (stereo not given)	> 100 µM	> 100 µM
CCc1ccc(/C=C\c2cc(OC)c(OC)c(OC)c2)cc1	–	0.0329 µM
O=c1c2cc([N+](=O)[O-])ccc2sc2ccsc12	> 100 µM	–
COc1ccc(C2=CC3CCC2C3)cc1 (stereo not given)	> 100 µM	–
[Cl-].[Dy+3].[O-]/N=C(\c1ccccc1)c1ccccn1.[O-]/N=C(\c1ccccc1)c1ccccn1.[O-]/N=C(\c1ccccc1)c1ccccn1	> 100 µM	28.8 µM
NC(=O)C(=O)N/N=C(\CC1(O)C(=O)Nc2ccccc21)c1ccc2ccccc2c1 (stereo not given)	> 100 µM	–
Cc1cc2c(cc1C)[n+](=O)c(C(=O)C/C(=N/NC(=O)CC#N)C(=O)Nc1ccccc1C(F)(F)F)c(C)n2[O-]	> 100 µM	–
COC(=O)/C(=N/NC(=O)C[N+](C)(C)C)C(C(=O)OC)C(=O)C(=O)Nc1ccc(F)cc1 (stereo not given)	> 100 µM	–
FC(F)(F)c1cccc(Nc2nccc(-c3cnn4nc(-c5ccccc5)ccc34)n2)c1	11.1 µM	5.23 µM
CC[C@@H]1C(=O)N(C)c2cnc(Nc3ccc(C(=O)NC4CCN(C)CC4)cc3OC)nc2N1C1CCCC1	> 10 µM and 6.64 µM	0.00386 µM and < 0.01 µM
C=C1C(=O)O[C@H]2[C@H]1CC/C(COC(=O)c1ccc3ccccc3c1)=C\CC[C@@]1(C)O[C@@H]21	3.75 µM	1.69 µM
O=C(c1ccccc1)c1nnc(C(=O)c2ccccc2)nn1	> 344 µM	–
Brc1cccc(C=NC23CC4CC(CC(C4)C2)C3)c1	> 100 µM	–
CC(C)c1nc(CN(C)C(=O)N[C@H](C(=O)N[C@@H](Cc2ccccc2)C[C@H](O)[C@H](Cc2ccccc2)NC(=O)OCc2cncs2)C(C)C)cs1	55.7 µM	17.5 µM
CCC[CH2][Sn]([CH2]CCC)([O]C(=O)c1cccnc1SC)[O]C(=O)c1cccnc1SC	3.47 µM	1.66 µM

SMILES	TGI	GI50
Oc1ccc(CN2CCC(N3CCCCC3)CC2)c2cccnc12	> 100 µM	4.01 µM
CC[C@@]1(O)C(=O)OCc2c1cc1n(c2=O)Cc2c-1nc1cc3c(cc1c2CCl)OCO3	< 0.0318 µM	< 0.01 µM
CC1(C)OC2[C@@H](CNC(=O)NC(=O)NC(=O)CI)O[C@@H](n3cnc4c(NC(=O)Nc5ccccc5)ncnc43)[C@H]2O1 (stereo not given in full)	> 50 µM	27 µM
COc1cc(C2=C(c3ccccc3)COC2=O)cc(OC)c1OC	56.4 µM	0.966 µM
COc1cc(C2NC(=O)c3ccccc3N2)ccc1OCCCCCOc1c(OC)cc(C2=NOC(c3cc(OC)c(OC)c(OC)c3)C2)cc1OC (stereo not given)	67.2 µM	14.2 µM
O=C1Nc2c(C(F)(F)F)cccc2[C@]1(c1ccc(O)cc1)c1ccc(OC(F)(F)F)cc1	28.8 µM	8.43 µM
O=C1O[C@@H](c2ccc3c(c2)OCO3)C2C(=O)O[C@@H](c3ccc4c(c3)OCO4)C12 (stereo not given in full)	> 100 µM	–
O=C1CCC(=O)N2CCCCN12	> 100 µM	–
CC(C)C(=O)NC(=S)Nc1ccc([N+](=O)[O-])cc1C#N	> 100 µM	–
CC(=O)OC[C@]1(C)C=C2C(=O)[C@](C)(O)C3(CC3)C(C)=C2[C@H]1O	0.0844 µM	0.0282 µM
Oc1ccc(NCc2nc3ccccc3[nH]2)cc1	> 100 µM	41.9 µM
O=C(O)CNS(=O)(=O)c1ccc(NCc2ccccc2)cc1	> 100 µM	–
O=C1c2cc(Cl)ccc2S(=O)(=O)c2c(NCCCNCCO)nc3ccccc3c21	4.73 µM	2.02 µM
CC[C@@H]1CN(C)[C@H]2Cc3c([nH]c4ccccc34)C(=O)C[C@H]1C2C(=O)OC (stereo not given in full)	> 100 µM	–
COc1ccc(/C=C/c2nccc3ccccc23)cc1OC	> 10 µM	–
O=c1[nH]ncc(Br)c1Br	27.4 µM	13.1 µM
COc1ccc(-c2cc(=O)c3c(OC)c(OC)c(OC)cc3o2)cc1	81.4 µM	–

What follows are compounds tested on DU-145 prostate (assay: DTP human tumour cell line panel, 48 h).

SMILES	GI50 [µM]	TGI [µM]
FC(F)(F)c1cccc(Nc2nccc(-c3cnn4nc(-c5ccccc5)ccc34)n2)c1	7.1	> 17.4
CC[C@@H]1C(=O)N(C)c2cnc(Nc3ccc(C(=O)NC4CCN(C)CC4)cc3OC)nc2N1C1CCCC1	0.00363	> 10
C=C1C(=O)O[C@H]2[C@H]1CC/C(COC(=O)c1ccc3ccccc3c1)=C\CC[C@@]1(C)O[C@@H]21	0.945	2.23
CC(C)c1nc(CN(C)C(=O)N[C@H](C(=O)N[C@@H](Cc2ccccc2)C[C@H](O)[C@H](Cc2ccccc2)NC(=O)OCc2cncs2)C(C)C)cs1	1.42	–
Oc1ccc(CN2CCC(N3CCCCC3)CC2)c2cccnc12	6.64	> 100
CC[C@@]1(O)C(=O)OCc2c1cc1n(c2=O)Cc2c-1nc1cc3c(cc1c2CCl)OCO3	< 0.01	–
CC1(C)OC2[C@@H](CNC(=O)NC(=O)NC(=O)CI)O[C@@H](n3cnc4c(NC(=O)Nc5ccccc5)ncnc43)[C@H]2O1 (stereo not given in full)	14.5	> 50
COc1cc(C2=C(c3ccccc3)COC2=O)cc(OC)c1OC	4.68	> 100
COc1cc(C2NC(=O)c3ccccc3N2)ccc1OCCCCCOc1c(OC)cc(C2=NOC(c3cc(OC)c(OC)c(OC)c3)C2)cc1OC (stereo not given)	22.5	> 82.7
O=C1Nc2c(C(F)(F)F)cccc2[C@]1(c1ccc(O)cc1)c1ccc(OC(F)(F)F)cc1	11.7	23.9
CC(=O)OC[C@]1(C)C=C2C(=O)[C@](C)(O)C3(CC3)C(C)=C2[C@H]1O	0.036	–
Oc1ccc(NCc2nc3ccccc3[nH]2)cc1	75.9	> 100
O=C1c2cc(Cl)ccc2S(=O)(=O)c2c(NCCCNCCO)nc3ccccc3c21	1.25	2.52
CC[C@@H]1CN(C)[C@H]2Cc3c([nH]c4ccccc34)C(=O)C[C@H]1C2C(=O)OC (stereo not given in full)	–	> 100
COc1ccc(/C=C/c2nccc3ccccc23)cc1OC	–	> 10
O=c1[nH]ncc(Br)c1Br	3.31	15.3
COc1ccc(-c2cc(=O)c3c(OC)c(OC)c(OC)cc3o2)cc1	–	> 100

These compounds were tested on HCC-2998 colon (assay: DTP human tumour cell line panel, 48 h).

SMILES	TGI [µM]
COC(=O)c1c/c(=N\NC(=O)CC(=O)Nc2ccccc2OC)c2ccccc2o1	> 100
NC(CCC(=O)NC(CSSCCCCS(=O)O)C(=O)NCC(=O)O)C(=O)O (stereo not given)	> 100
